Test results: US11541083B2, “Methods and probiotic compositions for the treatment of bone disorders” (Research Development Foundation, priority 2018, dated 2023)

Tested on: ovariectomized mice
Experiment: 3-point bending biomechanical test on femur of ovariectomized mice after single microbe transplantation
Type: in vivo
Experimental: Animals: All C57BL/6J mice were purchased from Janvier Labs, and kept in a specific pathogen-free (SPF) facility in individually ventilated cages. All the mice were in a 12 h day/night cycle and fed a standard chow diet (16.2 MJ/kg Gross Energy; 9 kJ % Fat, 33 kJ % Protein, 58 kJ % Carbohydrates, V1534-727, Ssniff, Germany). All the mice were either male and entered the experiment at 8 weeks of age, or female starting at 16 weeks of age (for the ovariectomy experiment). Acclimatized animals were allocated into groups based on their body weight to ensure equal starting points. Warmth exposure was done at 34° C. in a light and humidity-controlled climatic chamber (TSE, Germany) in SPF conditions using individually ventilated cages All mice were sacrificed after 5 h fasting. Bone samples for CT-scan and biomecanics analysis were stored in a humid package at −20° C. All animal experiments were approved by the Swiss federal and Geneva cantonal authorities for animal experimentation (Office Vétérinaire Fédéral and Commission Cantonale pour les Expériences sur les animaux de Genève).
Ovariectomy: Mice were anesthetised with Xylazin/Ketamin (injection of 120 μl of a mixture of 120 mg/kg ketamine and 16 mg/kg xylazine) and shaved below the ribs on the back side. Betadine was applied to the area for appropriate disinfection. After a 1-2 cm incision through the skin and the muscle layer just below the ribs, the ovary was localized, the fallopian tube ligated with dissolving suture and the ovary removed. […]
Biomechanical analysis of the bones: We used a 3-points bending test to measure biomechanical parameters of the bone. […] Mechanical resistance to failure (displacement and load applied) was measured using a servo-controlled electromechanical system (Instron 1114, Instron corp., High Wycombe, UK) with actuator displaced at 2 mm/minute. Ultimate force (maximal load, measured in Newtons [N]), Yield point (N), stiffness (elastic energy, N/mm), and energy to fracture (surface under the curve of the plastic region, N*mm) were calculated. Young's modulus (MPa) was determined.

[1] = gavage every second day for 2 month, starting 3 days post-surgery

## Lactobacillus reuteri
[1]
  increased displacement (post-yield displacement), femur: reduce or prevent
  reduction in ultimate force (ultimate strength), femur: reduce or prevent the reduction
Legend of FIGS. 7A-C, overall statement
  bone fragility induced by ovariectomy: can reduce or prevent
